Experimental data reported in patent US8563054B2, “Anti-inflammatory agent” (Maruzen Pharmaceuticals Co., Ltd., priority 2005, dated 2013).
In brackets after ≈: the same amount, converted by molar mass.

Key:
[1] = test system: rabbit washed platelet suspension; experiment: Platelet aggregation inhibitory effect (collagen-induced, washed platelets); format: cell-based; settings: collagen as aggregation inducing agent, by interpolation
Method: For the extracts and purified materials prepared in Production Examples 1 to 5 (hereinafter, may be referred to as “sample”), inhibitory effect on platelet aggregation was tested as follows.
First, rabbit blood, which was collected with the addition of 1/10 amount of 77 mmol/L EDTA (pH 7.4), was centrifuged (180×g, 10 minutes, room temperature) to obtain platelet suspension. Next, the platelet suspension was centrifuged (810×g, 10 minutes, 4° C.), and the supernatant was removed to obtain platelet. This was suspended in platelet washing solution (0.15 mol/L sodium chloride: 0.15 mol/L Tris-HCL buffer (pH 7.4): 77 mmol/L EDTA (pH7.4)=90:8:2), centrifuged in the same way as mentioned above. […]
Next, to 222 μL of the prepared washed platelet suspension, 1 μL of 200 mmol/L calcium chloride solution was added and allowed to react at 37° C. for 1 minute. […] Separately, rate of platelet aggregation, B, was determined in a similar operation to that mentioned above except that the solvent of sample solution was added instead of the sample solution. % Inhibition of platelet aggregation=[(B−A)/B]×100 <Formula 3> […]
Next, the sample concentration was reduced in a stepwise manner, and the above-mentioned percentage inhibition of platelet aggregation was measured. The sample concentration, at which 50% of platelet aggregation is inhibited, was determined by interpolation. […]

[2] = target: T1, hyaluronidase (Type IV-S, from bovine testis) (Bos taurus, UniProt Q2YDK3); experiment: Hyaluronidase activity inhibition assay; format: biochemical; settings: pH 3.5, 37° C., by interpolation
T1 construct: hyaluronidase solution (Type IV-S (from bovine testis))
T1 sequence (Q2YDK3 1-553): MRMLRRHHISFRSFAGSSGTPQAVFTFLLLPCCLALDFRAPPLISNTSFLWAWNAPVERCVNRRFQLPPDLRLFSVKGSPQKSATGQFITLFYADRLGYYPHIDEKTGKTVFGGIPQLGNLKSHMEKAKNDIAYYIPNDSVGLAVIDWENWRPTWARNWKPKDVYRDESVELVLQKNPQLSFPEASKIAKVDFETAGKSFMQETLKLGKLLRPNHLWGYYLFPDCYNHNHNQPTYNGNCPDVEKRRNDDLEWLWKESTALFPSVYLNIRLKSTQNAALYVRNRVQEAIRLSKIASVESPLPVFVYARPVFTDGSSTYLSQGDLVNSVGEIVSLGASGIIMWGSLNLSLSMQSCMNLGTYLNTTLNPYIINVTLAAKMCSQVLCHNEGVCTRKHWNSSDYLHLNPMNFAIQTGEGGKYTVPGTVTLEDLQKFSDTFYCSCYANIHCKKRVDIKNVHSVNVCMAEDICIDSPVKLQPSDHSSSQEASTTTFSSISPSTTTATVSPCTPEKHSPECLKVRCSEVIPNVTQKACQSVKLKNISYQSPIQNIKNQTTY
Method: For the extracts and purified materials prepared in Production Examples 1 to 5 (hereinafter, may be referred to as “sample”), inhibitory effect on hyaluronidase activity was tested as follows.
First, 0.1 mL of hyaluronidase solution (Type IV-S (from bovine testis; SIGMA 400 NF units/mL) was added to 0.1 mol/L acetic acid buffer (pH 3.5) in which each sample was dissolved, and allowed to react at 37° C. for 20 minutes.
Next, 0.2 mL of 2.5 mmol/L calcium chloride was added as an activating agent and allowed to react at 37° C. for 20 minutes. To this solution, 0.5 mL of 0.4 mg/mL potassium hyaluronate solution (from rooster comb) was added and allowed to react at 37° C. for 40 minutes. […] After that, absorbance at the wavelength of 585 nm was determined.
Next, similar operations and absorbance determination were performed without addition of enzyme. Further, as a control, using distillated water instead of sample solution, similar operations and absorbance determination were performed.
From the results of the measurements mentioned above, the percentage inhibition of hyaluronidase activity was calculated according to the following formula 1: % Inhibition of hyaluronidase activity=[1−(St−Sb)/(Ct−Cb)]×100 <Formula 1> […]
Next, the sample concentration was reduced in a stepwise manner, and the above-mentioned percentage inhibition of hyaluronidase activity was measured. […]

[3] = test system: rat basophilic leukemia cells (RBL-2H3); experiment: Assay of inhibitory effect on hexosaminidase release (indicator of histamine release); format: cell-based; settings: RBL-2H3, DNP-specific IgE / DNP-BSA stimulation; by interpolation
Method: For the extracts and purified materials prepared in Production Examples 1 to 5 (hereinafter, may be referred to as “sample”), inhibitory effect on hexosaminidase release was tested as follows. Since hexosaminidase is also released simultaneously upon release of to histamine inside a cell, the inhibitory effect on histamine release can be evaluated using hexosaminidase release as an indicator of histamine release.
First, rat basophilic leukemia cells (RBL-2H3) were cultured using a medium (S-MEM medium with 15% FBS; hereinafter the same) placed in 25 mL culture flasks, and then cells were collected by trypsin treatment. […]
Then, release was stopped by leaving the 96 well plate at rest on ice. […] After completion of the reaction, 250 μL of 0.1 mol/L Na2CO3/NaHCO3 was added to each well, and the absorbance at the wavelength of 415 nm was determined.
Next, as a blank test, the absorbance of a mixture of 10 μl it of cell supernatant and 250 μL of 0.1 mol/L Na2CO3/NaHCO3 at the wavelength of 415 nm was determined and was used for correction.
From the results of the measurements mentioned above, the percentage inhibition of hexosaminidase release was determined according to the following formula 2: % Inhibition of hexosaminidase release=[1−(B−C)/A]×100 <Formula 2> […]

IC50 ([1]; Oryctolagus cuniculus, Platelet, read-out: Sample concentration for 50% inhibition of platelet aggregation) | IC50 ([2]; read-out: Sample concentration for 50% inhibition of hyaluronidase activity (converted)) | Sample concentration for 50% inhibition of hyaluronidase activity [2] | SMILES | Sample concentration for 50% inhibition of hexosaminidase release [3] | Sample concentration for 50% inhibition of platelet aggregation [1]
400 µg/mL (≈ 1230 µM) | 56.4 µM |  | CC1(C)C=Cc2c(ccc3c2OC[C@@H](c2ccc(O)cc2O)C3)O1 [Glabridin of Production Example 4, glabridin] |  | 
 |  | 17.2 µg/mL | C=CC(C)(C)c1cc(/C=C/C(=O)c2ccc(O)cc2)c(OC)cc1O [Licochalcone A of Production Example 5, licochalcone A] | 23.5 µg/mL | 79.7 µg/mL
